Test results: US4978666A, “Optically active piperazine derivative” (Nippon Chemiphar Co., Ltd., priority 1988, dated 1990)
Where a name gives a salt, the structure may show the parent alone.

Experiments:
Assay type in all cases: in vivo
SD-strain female rats = assay: Acute toxicity (oral LD50 in rats); settings: SD-strain female rats 150 to 200 g, observed for 2 weeks, 20160 min, dihydrochloride
Source text: (§1) The peripheral vasodilating effect (action for increase of blood flow of vertebrae) and acute toxicity of (-)-1-(3,4-dimethoxyphenyl)-2-(4-diphenylmethylpiperazinyl)ethanol dihydrochloride according to the invention, (+)-1-(3,4-dimethoxyphenyl)-2-(4-diphenylmethylpiperazinyl)ethanol dihydrochloride, and (±)-1-(3,4-dimethoxyphenyl)-2-(4-diphenylmethylpiperazinyl)ethanol dihydrochloride are illustrated by the following examples.
(§2) Each of the (-)-, (+)- and (±)-piperazine derivatives were orally administered to SD-strain female rats each having a body weight of 150 to 200 g.

vertebral blood flow = assay: Peripheral vasodilating effect (vertebral blood flow increase in anesthetized dogs); settings: i.v., anesthetized mongrel dogs
Source text: as §1
Mongrel Dogs of both sexes each weighing about 10 kg were anesthetized with sodium pentobarbital (35 mg/kg, i.v.). Artificial respiration was performed with room air. The vertebral blood flow and femoral blood flow were measured by an electromagnetic flowmeter (avilable from Nihon Koden, MF-27 and MFV-1100) with flow probes. The blood pressure and heart rate were measured at the same time. […]

[1] = Concentration in blood after administration to beagle dogs; settings: as compared with administration of the (+)-derivative
[2] = Acute toxicity (oral LD50 in rats); settings: rat, in vivo, po, SD-strain female rats 150 to 200 g, observed for 2 weeks
Source text: as §1, §2

Compound	LD50 (SD-strain female rats) [mg/kg]	Percentage of vertebral blood flow increase (vertebral blood flow; 0.03 mg/kg, dihydrochloride) [%]	Percentage of vertebral blood flow increase (vertebral blood flow; 0.1 mg/kg, dihydrochloride) [%]	concentration in blood (determined from an area of a measured blood concentration curve) [1]	LD50 at 336 h [2] [mg/kg]	Percentage of vertebral blood flow increase (vertebral blood flow; 0.03 mg/kg) [%]	Percentage of vertebral blood flow increase (vertebral blood flow; 0.1 mg/kg) [%]
COc1ccc(C(O)CN2CCN(C(c3ccccc3)c3ccccc3)CC2)cc1OC (single isomer, unassigned; (+)) [(+)-Derivative, (+)-1-(3,4-dimethoxyphenyl)-2-(4-diphenylmethylpiperazinyl)ethanol dihydrochloride]	14.3	13.4	34.3	–	–	–	–
COc1ccc(C(O)CN2CCN(C(c3ccccc3)c3ccccc3)CC2)cc1OC (single isomer, unassigned; (-)) [(-)-Derivative, (-)-1-(3,4-dimethoxyphenyl)-2-(4-diphenylmethylpiperazinyl)ethanol dihydrochloride]	45.4	22.9	48.0	high concentration in blood	–	–	–
COc1ccc(C(O)CN2CCN(C(c3ccccc3)c3ccccc3)CC2)cc1OC (racemic) [(±)-Derivative, (±)-1-(3,4-dimethoxyphenyl)-2-(4-diphenylmethylpiperazinyl)ethanol dihydrochloride]	–	–	–	–	29.1	16.9	43.9
